# Experimental data published in US6258790A, “Antisense modulation of integrin α4 expression” (Isis Pharmaceuticals, Inc., priority 1999, dated 2001).
# Key:
# murine integrin α4 = experiment: Antisense inhibition of murine integrin α4 protein expression in IC-21 macrophage cells (flow cytometry, CD49d-PE); type: cell-based, mouse; conditions: for % Control / % Inhib.: Table 16
# Method: Murine IC-21 macrophage cells (American Type Culture Collection, Manassas, Va.) were used for further study. Additional oligonucleotides were designed to target murine integrin α4. These are shown in Table 10; all 2' MOE nucleotides are shown in bold and remaining positions are 2' deoxy. All 2'-MOE cytosines in these compounds are 5' methylcytosines. IC-21 cells were seeded at 5×10^4 cell/well plates two days before assay. […] Wells were triplicates.
# Cells (triplicates) were seeded at 2.5×10^4 cells/well in 24-well plates the day before treatment. Oligonucleotide concentrations were 0.2, 1, 5, 25 and 50 nM in 3 ug/ml LIPOFECTIN. Cells were harvested with 2 mM EDTA for 4 minutes, then 1 ml of 2% BSA, 0.2% azide was added per contents of each well.
# IC-21 cells were treated with 0.3, 1, 3, 10 and 30 nM oligonucleotide with 3 ug/ml LIPOFECTIN for 4 hours. Cells were incubated for 24 hours, harvested with trypsin, stained with 2 ug/ml CD49d-PE and rat IgG2B as in previous examples.
# These compounds were tested for ability to inhibit integrin α4 protein expression.
# human integrin α4 mRNA = experiment: Integrin α4 mRNA levels in A375 melanoma cells by real-time quantitative PCR; type: cell-based; conditions: 24 hours, electroporation
# Method: Quantitation of integrin α4 mRNA levels was performed by real-time quantitative PCR using the ABI PRISM™ 7700 Sequence Detection System (PE-Applied Biosystems, Foster City, Calif.) according to manufacturer's instructions. This is a closed-tube, non-gel-based, fluorescence detection system which allows high-throughput quantitation of polymerase chain reaction (PCR) products in real-time. As opposed to standard PCR, in which amplification products are quantitated after the PCR is completed, products in real-time quantitative PCR are quantitated as they accumulate. This is accomplished by including in the PCR reaction an oligonucleotide probe that anneals specifically between the forward and reverse PCR primers, and contains two fluorescent dyes. A reporter dye (e.g., JOE or FAM, obtained from either Operon Technologies Inc., Alameda, Calif. or PE-Applied Biosystems, Foster City, Calif.) is attached to the 5' end of the probe and a quencher dye (e.g., TAMRA, obtained from either Operon Technologies Inc., Alameda, Calif. or PE-Applied Biosystems, Foster City, Calif.) is attached to the 3' end of the probe. When the probe and dyes are intact, reporter dye emission is quenched by the proximity of the 3' quencher dye. During amplification, annealing of the probe to the target sequence creates a substrate that can be cleaved by the 5'-exonuclease activity of Taq polymerase. […] With each cycle, additional reporter dye molecules are cleaved from their respective probes, and the fluorescence intensity is monitored at regular intervals by laser optics built into the ABI PRISM™ 7700 Sequence Detection System. In each assay, a series of parallel reactions containing serial dilutions of mRNA from untreated control samples generates a standard curve that is used to quantitate the percent inhibition after antisense oligonucleotide treatment of test samples.
# PCR reagents were obtained from PE-Applied Biosystems, Foster City, Calif. RT-PCR reactions were carried out by adding 20 μL PCR cocktail (1×TAQMANT buffer A, 5.5 mM MgCl2, 300 μM each of dATP, dCTP and dGTP, 600 μM of dUTP, 400 nM each of forward primer and reverse primer (or 100 nM in the case of G3PDH), 100 nM probe, 20 Units RNAse inhibitor, 1.25 Units AMPLITAQ GOLD™, and 12.5 Units MuLV reverse transcriptase) to 5 μL (100 ng) total mRNA solution, purified using the RNEasy™ kit (Qiagen, Valencia Calif.). The RT reaction was carried out by incubation for 30 minutes at 48° C. Following a 10 minute incubation at 95° C. to activate the AMPLITAQ GOLD™, 40 cycles of a two-step PCR protocol were carried out: 95° C. for 15 seconds (denaturation) followed by 60° C. for 1.5 minutes (annealing/extension). Integrin α4 probes and primers were designed to hybridize to the human integrin α4 sequence, using published sequence information (GenBank accession number L12002), incorporated herein as SEQ ID NO:1).
# For integrin α4 the PCR primers were: forward primer: GACACGCTGCGCCTCAT (SEQ ID NO: 94, hybridizes at position 319-335 of Genbank accession no. L12002) reverse primer: […] (SEQ ID NO: 95, hybridizes at position 391-412 of Genbank accession no. L12002) and the PCR probe was: FAM-[…]-TAMRA (probe is SEQ ID NO: 96; hybridizes at position 361-382 of Genbank accession no. L12002) where FAM (PE-Applied Biosystems, Foster City, Calif.) is the fluorescent reporter dye) and TAMRA (PE-Applied Biosystems, Foster City, Calif.) is the quencher dye. […]
# human integrin α4 = experiment: Integrin α4 protein expression in A375 cells after electroporation of oligonucleotide (flow cytometry); type: cell-based
# Method: A375 cells were treated with ISIS 107245, 107248, 107252, 107255 and 107259 by electroporation at 175 volts, r=1, c=1000, 0.2 ml Opti-MEM, 1×10^6 cells /ml, 2 mm gap electrode using a BTX Electro Cell Manipulator 600 (Genetronics, San Diego Calif.). Oligonucleotide concentrations were 1, 3, 10 and 30 μM. Cells were harvested 24 hours after oligonucleotide treatment and strained with 2 ug/ml CD49d-FITC for flow cytometry as in the previous examples.
# ISIS 107248 was compared directly to ISIS 27104 for ability to inhibit integrin α4 expression in A375 melanoma cells. Oligonucleotides were electroporated into cells as in the previous example.
substance,measurement,setting,value
"17044 (CCGCAGCCATGCGCTCTTGG; phosphorothioate, 2'-MOE/deoxy, further chemistry not given here) [compound 17044]",reduction of integrin α4 expression,murine integrin α4; Example 14,reduce integrin α4 expression to below starting levels
same,% Control,murine integrin α4; 0.3 nM,100%
same,% Inhib.,murine integrin α4; 0.3 nM,0%
same,% Control,murine integrin α4; 1 nM,81%
same,% Inhib.,murine integrin α4; 1 nM,19%
same,% Control,murine integrin α4; 3 nM,32%
same,% Inhib.,murine integrin α4; 3 nM,68%
same,% Control,murine integrin α4; 10 nM,-9%
same,% Inhib.,murine integrin α4; 10 nM,> 100%
107248 (antisense CTGAGTCTGTTTTCCATTCT; chemistry not given here) [compound 107248],reduction of integrin α4 mRNA levels compared to control,human integrin α4 mRNA; 0.3 μM,approximately 23%
same,reduction of integrin α4 mRNA levels compared to control,human integrin α4 mRNA; 1 μM,~38%
same,reduction of integrin α4 mRNA levels compared to control,human integrin α4 mRNA; 3 μM,~70%
same,reduction of integrin α4 mRNA levels compared to control,human integrin α4 mRNA; 10 μM,~80%
same,reduction of integrin α4 mRNA levels compared to control,human integrin α4 mRNA; 30 μM,~85%
same,% Control,"human integrin α4; Table 25, 1 nM as printed, 24 hours",9.1%
same,% Control,"human integrin α4; Table 25, 10 nM, 24 hours",23.2%
same,% Control,"human integrin α4; Table 25, 30 nM, 24 hours",52.1%
same,% Control,"human integrin α4; Table 26, 1 μM",52.1%
same,% Inhib.,"human integrin α4; Table 26, 1 μM",47.9%
same,% Control,"human integrin α4; Table 26, 3 μM",17.4%
same,% Inhib.,"human integrin α4; Table 26, 3 μM",82.6%
same,% Control,"human integrin α4; Table 26, 10 μM",7.9%
same,% Inhib.,"human integrin α4; Table 26, 10 μM",92.1%
same,% Control,"human integrin α4; Table 26, 30 μM",2.9%
same,% Inhib.,"human integrin α4; Table 26, 30 μM",97.1%
